{"source": "patent US8309110B2", "about": "“Biocide composition and sterilization method using the same” (priority 1998, dated 2012)", "tested_on": "mixed solution of 8 types of bacteria", "assay": "MIC and synergistic index on a mixed solution of 8 types of bacteria, two fold dilution method", "assay_type": "cell-based", "conditions": "72 h; 30 degrees centigrade, 3 days, Tryptic Soy Broth; read-out: Qa: MIC value on the mixed strain of a single 3-isothiazolone", "experimental": "The sterilizing effects of 3-isothiazolone and polyhexamethyleneguanidine phosphate on a mixed solution of 8 types of bacteria (Enterobacter aerogens ATCC 13048, Escherichia coli ATCC 11229, Micrococcus luteus ATCC 9341, Pseudomonas aeruginosa ATCC 15442, Klebsiella pneumoniae, Staphylococcus epidermis ATCC 155, Staphylococcus aureus ATCC 6538, and Bacillus subtilis ATCC 6984) were tested using Tryptic Soy Broth manufactured by Difco Corporation according to the two fold dilution method. The minimum inhibiting concentration of each biocide and mixtures thereof were determined by observation with the naked eye of the degree of muddiness of the lowest concentration in which growth was deteriorated after culturing a culture fluid in which biocides and microorganisms are added at 30 degrees centigrade for 3 days.", "data": [{"compound": "O=c1ccs[nH]1", "note": "[3-isothiazolone]", "values": [{"measurement": "MIC", "result": 18.8, "unit": "µg/mL"}]}]}
